Values of other authors, collected in US20210346426A1, “COMPOSITION AND METHOD FOR THE TREATMENT OF COVID-19” (priority 2020, published 2021).

Experiments:
[1] = even at high concentration
[2] = after oral administration
[3] = test system: blood coagulation
[4] = test system: blood coagulation; conditions: intravenous injection

Row | Compound | Acidity (pKa) pKa2 | effect in contact with skin [1] | excreted unchanged in urine [2] | oxidation of the citrate ion [2] | effect on blood coagulation in vitro [3] | coagulation times of the blood [4]
1 | O=C(O)CC(O)(CC(=O)O)C(=O)O [Citric acid, 2-Hydroxypropane-1,2,3-tricarboxylic acid] | pKa2 = 4.76 | not injurious |  |  |  | 
2 | O=C(O)CC(O)(CC(=O)O)C(=O)O [citrate ion] |  |  | less than 1% | rapidly and almost completely oxidized | acts as an anticoagulant | shortens
3 | O=C([O-])CC(O)(CC(=O)[O-])C(=O)[O-].[Na+].[Na+].[Na+] [sodium citrate, Sodium Citrate] |  |  |  |  | prevents the blood from coagulation | 
